Tests used:
[1] = for surface tension liquid-gas: Drop volume; for viscosity / speed of sound / mass density: 101.33 kPa; for viscosity / speed of sound / mass density / vapor or sublimation pressure: Liquid; for viscosity: Capillary tube (Ostwald / Ubbelohde) method; for speed of sound: Sing-around technique in a fixed-path interferometer; for mass density: Vibrating tube method; for vapor or sublimation pressure: Ebulliometric method (Recirculating still)
[2] = refractive index (Na D-line) (dimensionless); details: 101.33 kPa, Liquid, Standard Abbe refractometry
[3] = relative permittivity at various frequencies (dimensionless); details: 101.3 kPa, Liquid, Frequency=2 MHz, Parallel plate capacitor

CCOC(=O)C(C)O (racemic) [DL-ethyl lactate]
Details	mass density, [1] [kg/m3]	refractive index, [2]	relative permittivity, [3]	speed of sound, [1] [m/s]	surface tension liquid-gas, [1] [mN/m]	vapor or sublimation pressure, [1] [kPa]	viscosity, [1] [mPa·s]
278.15 K	1050.05	–	17.791	1354.5	31.47	–	4.479
280.65 K	1047.37	–	17.538	1345.2	31.21	–	4.091
283.15 K	1044.68	1.41751	17.219	1335.7	30.94	–	3.75
285.65 K	1041.96	1.41644	16.961	1326.2	30.79	–	3.451
288.15 K	1039.26	1.41528	16.736	1316.8	30.43	–	3.184
290.65 K	1036.54	1.41414	16.496	1307.5	30.18	–	2.947
293.15 K	1033.82	1.41301	16.166	1298.3	29.95	–	2.735
295.65 K	1031.09	1.41188	15.961	1289	29.67	–	2.546
298.15 K	1028.37	1.41074	15.711	1279.7	29.49	–	2.375
300.65 K	1025.63	1.40959	15.448	1270.5	29.23	–	2.221
303.15 K	1022.89	1.40843	15.18	1261.2	28.88	0.436	2.081
305.65 K	1020.15	1.40729	14.917	1251.9	28.64	–	1.955
308.15 K	1017.4	1.40615	14.639	1242.6	28.42	0.603	1.838
310.65 K	1014.64	1.40501	14.373	1233.3	28.12	–	1.733
313.15 K	1011.88	1.40381	14.107	1224	27.84	0.829	1.636
315.65 K	1009.12	1.40267	13.843	1214.7	27.46	–	1.547
318.15 K	1006.34	1.40152	13.573	1205.4	27.19	1.142	1.466
320.65 K	1003.57	1.40036	13.298	1196.1	26.92	–	1.391
323.15 K	1000.78	1.39918	13.045	1186.8	26.65	1.536	1.321
325.65 K	997.99	1.39798	12.786	1177.6	26.29	–	1.255
328.15 K	995.193	1.39684	12.538	1168.4	26.08	2.015	1.196
330.65 K	992.389	1.3956	12.286	1159.1	25.92	–	1.14
333.15 K	989.579	1.39448	12.044	1149.9	25.48	2.717	1.087
335.65 K	986.763	1.3933	11.787	1140.7	25.32	–	1.037
338.15 K	983.942	1.39215	11.495	1131.6	25.05	3.523	0.9907
343.15 K	–	–	–	–	–	4.591	–
348.15 K	–	–	–	–	–	5.851	–
353.15 K	–	–	–	–	–	7.323	–
358.15 K	–	–	–	–	–	9.29	–
363.15 K	–	–	–	–	–	11.49	–
368.15 K	–	–	–	–	–	14.19	–
373.15 K	–	–	–	–	–	17.37	–
378.15 K	–	–	–	–	–	21.11	–
383.15 K	–	–	–	–	–	25.51	–
388.15 K	–	–	–	–	–	30.62	–
393.15 K	–	–	–	–	–	36.24	–
398.15 K	–	–	–	–	–	42.71	–
403.15 K	–	–	–	–	–	50.4	–
408.15 K	–	–	–	–	–	59.11	–
413.15 K	–	–	–	–	–	69.13	–
418.15 K	–	–	–	–	–	80.2	–
423.15 K	–	–	–	–	–	92.51	–

CCCCOC(=O)C(C)O (configuration not stated) [butyl 2-hydroxypropanoate]
Details	mass density, [1] [kg/m3]	refractive index, [2]	relative permittivity, [3]	speed of sound, [1] [m/s]	surface tension liquid-gas, [1] [mN/m]	vapor or sublimation pressure, [1] [kPa]	viscosity, [1] [mPa·s]
278.15 K	996.896	–	11.488	1357.2	30.07	–	6.496
280.65 K	994.466	–	11.323	1348.2	29.86	–	5.873
283.15 K	992.023	1.42578	11.164	1339.1	29.65	–	5.333
285.65 K	989.578	1.42472	11.046	1330.1	29.42	–	4.86
288.15 K	987.126	1.4237	10.912	1321.2	29.14	–	4.446
290.65 K	984.671	1.42259	10.769	1312.2	28.93	–	4.077
293.15 K	982.212	1.4215	10.593	1303.2	28.72	–	3.753
295.65 K	979.75	1.42038	10.428	1294.1	28.38	–	3.466
298.15 K	977.283	1.41928	10.298	1285	28.15	–	3.207
300.65 K	974.813	1.41815	10.158	1276	27.87	–	2.978
303.15 K	972.337	1.41703	10.024	1266.9	27.64	0.102	2.773
305.65 K	969.859	1.4159	9.87	1257.8	27.38	–	2.588
308.15 K	967.374	1.41477	9.695	1248.8	27.16	0.149	2.423
310.65 K	964.888	1.41366	9.583	1239.8	26.92	–	2.272
313.15 K	962.397	1.41252	9.411	1230.8	26.68	0.201	2.134
315.65 K	959.903	1.41139	9.273	1221.7	26.42	–	2.011
318.15 K	957.407	1.41026	9.165	1212.8	26.1	0.273	1.897
320.65 K	954.908	1.4091	9.002	1203.8	25.89	–	1.793
323.15 K	952.408	1.40797	8.844	1194.9	25.7	0.371	1.695
325.65 K	949.904	1.40682	8.699	1185.9	25.43	–	1.607
328.15 K	947.397	1.40572	8.545	1177	25.14	0.511	1.526
330.65 K	944.885	1.40441	8.418	1168	24.92	–	1.45
333.15 K	942.369	1.40341	8.286	1159.1	24.67	0.679	1.379
335.65 K	939.848	1.40226	8.164	1150.3	24.41	–	1.315
338.15 K	937.324	1.40114	8.047	1141.5	24.16	0.899	1.257
343.15 K	–	–	–	–	–	1.192	–
348.15 K	–	–	–	–	–	1.541	–
353.15 K	–	–	–	–	–	1.979	–
358.15 K	–	–	–	–	–	2.502	–
363.15 K	–	–	–	–	–	3.224	–
368.15 K	–	–	–	–	–	4.057	–
373.15 K	–	–	–	–	–	5.075	–
378.15 K	–	–	–	–	–	6.271	–
383.15 K	–	–	–	–	–	7.753	–
388.15 K	–	–	–	–	–	9.531	–
393.15 K	–	–	–	–	–	11.64	–
398.15 K	–	–	–	–	–	14.12	–
403.15 K	–	–	–	–	–	17	–
408.15 K	–	–	–	–	–	20.43	–
413.15 K	–	–	–	–	–	24.39	–
418.15 K	–	–	–	–	–	29.2	–
423.15 K	–	–	–	–	–	34.6	–
428.15 K	–	–	–	–	–	40.78	–
433.15 K	–	–	–	–	–	47.9	–
438.15 K	–	–	–	–	–	55.97	–
443.15 K	–	–	–	–	–	65.3	–
448.15 K	–	–	–	–	–	75.81	–
453.15 K	–	–	–	–	–	87.7	–
